Test results reported in patent US20220220099A1, “BENZAMIDE COMPOUND, AND HERBICIDE” (Nippon Soda Co., Ltd., priority 2019, published 2022).

Columns and labels:
[1] = system: Apera spica-venti; assay: Test Example 2: spraying treatment on stems and leaves, herbicidal rate; assay type: in vivo; conditions: spray amount of 16 g, three weeks later
Protocol: Emulsion for testing was prepared according to the preparation method described in Test Example 1.
A 150 cm^2 pot was filled with soil, and seeds of Avena sativa, Lolium multiflorum and Apera spica-venti were sowed on the surface layer, and after the soil was covered lightly, the Avena sativa, Lolium multiflorum and Apera spica-venti were grown in a greenhouse. At the point in time when Avena sativa was grown to a plant height of 16 to 20 cm, Lolium multiflorum was grown to a plant height of 10 to 14 cm, and Apera spica-venti was grown to a plant height of 2 to 4 cm, the emulsion for testing was diluted in such a way as to have a predetermined amount of an active ingredient and was sprayed on the leaves and stems in a spray amount of water of 250 L per hectare with a small-sized atomizer.
Three weeks later, the weight of a living weed above the ground was measured for each weed in the nontreated zone and in the treated zone to calculate a herbicidal rate by the following calculation formula.
Herbicidal rate (%)=(weight of living weed above ground in nontreated zone−weight of living weed above ground in treated zone)/(weight of living weed above ground in nontreated zone)×100 […]

melting point [°C]	SMILES	herbicidal activity (Apera spica-venti, follows Table 10) [1] [%]
209 to 211	CCOC1CS(=O)(=O)c2c(C(F)(F)F)ccc(C(=O)Nc3nnnn3C)c21 (stereo not drawn) [b-1]	
215 to 217	COCC1Cc2c(C(=O)Nc3nnnn3C)ccc(C(F)(F)F)c2S1(=O)=O (stereo not drawn) [b-2]	
202 to 205	Cn1nnnc1NC(=O)c1ccc(C(F)(F)F)c2c1C(O)CS2(=O)=O (stereo not drawn) [b-3]	
168 to 170	COC1CSc2c(C(F)(F)F)ccc(C(=O)Nc3nnnn3C)c2C1 (stereo not drawn) [b-9]	
220 to 223	Cn1nnnc1NC(=O)c1ccc(C(F)(F)F)c2c1C(F)CCS2(=O)=O (stereo not drawn) [b-10]	
182 to 183	Cc1nnc(NC(=O)c2ccc(C(F)(F)F)c3c2CCC(C)S3)o1 (stereo not drawn) [b-14]	
151 to 153	Cn1nnnc1NC(=O)c1ccc(C(F)(F)F)c2c1CCCS2(=O)=NC#N (stereo not drawn) [b-19]	
117 to 120	CC1CCc2c(C(=O)Nc3nnnn3C)ccc(C(F)(F)F)c2/S1=N/C#N (stereo not drawn) [b-21]	

The next lines start with the compound.

SMILES	melting point [°C]	herbicidal activity (Apera spica-venti, follows Table 10) [1] [%]
Cn1nnnc1NC(=O)c1ccc(C(F)(F)F)c2c1CCCS2 [a-37, N-(1-Methyl-1H-tetrazol-5-yl)-8-(trifluoromethyl)thiochromane-5-carboxamide]	166 to 167	
Cn1nnnc1NC(=O)c1ccc(C(F)(F)F)c2c1C(Br)CS2(=O)=O (stereo not drawn) [b-4]	209 to 211	
COC1CS(=O)(=O)c2c(C(F)(F)F)ccc(C(=O)Nc3nnc(C)o3)c21 (stereo not drawn) [b-5]	206 to 207	
COC1Cc2c(C(=O)Nc3nnnn3C)ccc(C(F)(F)F)c2S(=O)(=O)C1 (stereo not drawn) [b-8]	226 to 228	
Cn1nnnc1NC(=O)c1ccc(C(F)(F)F)c2c1C(F)CCS2 (stereo not drawn) [b-11]	132 to 135	
CC1CCc2c(C(=O)Nc3nnnn3C)ccc(C(F)(F)F)c2S1(=O)=O (stereo not drawn) [b-12]	270 to 271	
COc1ccc(N=S2(=O)CCCc3c(C(=O)Nc4nnnn4C)ccc(C(F)(F)F)c32)cc1 (stereo not drawn) [b-22]	123 to 124	
Cn1nnnc1NC(=O)c1ccc(C(F)(F)F)c2c1CCCS2(=O)=Nc1ccccc1 (stereo not drawn) [b-23]	110 to 112	
Cn1nnnc1NC(=O)c1ccc(C(F)(F)F)c2c1CCCS2(=O)=Nc1ccc(Cl)cc1 (stereo not drawn) [b-24]	113 to 114	
O=C(Nc1nnnn1CC(F)(F)F)c1ccc(C(F)(F)F)c2c1CCCS2 [c-6]		≥ 80
